Reference: paper PMC8640094, “Diaportones A–C: Three New Metabolites From Endophytic Fungus Diaporthe foeniculina BZM-15” (Frontiers in Chemistry, 2021)
≈ marks a conversion by molar mass, not a printed value.

Legend:
MRSA (JCSC 3063) = test: Antibacterial assay, broth macrodilution, MRSA; type: cell-based; details: Staphylococcus aureus
Method: Antibacterial activity of all compounds against MRSA (JCSC 3063) and E. coli (ATCC 8739) was tested by the broth […] method on 96-well plates according to the CLSI recommendation ([Li et al., 2014]).

SF-268 (CNS cancer) = test: MTT cytotoxicity assay, SF-268 cells; type: cell-based, human; details: Homo sapiens; for inhibition at 1 µM / inhibition at 2 µM / inhibition at 4 µM / inhibition at 8 µM / inhibition at 16 µM / inhibition at 32 µM / inhibition at 64 µM / inhibition at 128 µM: SF-268, 72 h, SF268 cells, triplicate values, read-out: cell inhibition; for inhibition at 1 µM: c 1.00 μM; for inhibition at 2 µM: c 2.00 μM; for inhibition at 4 µM: c 4.00 μM; for inhibition at 8 µM: c 8.00 μM; for inhibition at 16 µM: c 16.00 μM; for inhibition at 32 µM: c 32.00 μM; for inhibition at 64 µM: c 64.00 μM; for inhibition at 128 µM: c 128.00 μM; for IC50: SF-268, MTT, 72 h, mean ± SD (n = 3), read-out: IC50 SF268
Method: (§1) The cytotoxicity of all compounds against three human tumor cell lines, SF-268 (CNS cancer), MCF-7 (breast cancer), and HepG2 (hepatoma cancer), and normal cell line LX-2 was tested using the MTT assay. Adriamycin was used as a positive control. All cells were seeded into 96-well plates at 5 × 10^4 cells/ml and incubated at 37°C under a 5% CO2 atmosphere for 24 h. Then, the tested compounds were added. After 72 h, MTT solution was added into each well, which was further incubated. The cell-free supernatant was removed and formazan crystals were subsequently dissolved in DMSO. Optical density (OD) was recorded at 490 nm on a microplate reader to calculate the IC50 values.

MCF-7 (breast cancer) = test: MTT cytotoxicity assay, MCF-7 cells; type: cell-based, human; details: Homo sapiens; for inhibition at 1 µM / inhibition at 2 µM / inhibition at 4 µM / inhibition at 8 µM / inhibition at 16 µM / inhibition at 32 µM / inhibition at 64 µM / inhibition at 128 µM: MCF7, 72 h, three replicates, read-out: cell inhibition; for inhibition at 1 µM: MCF-7, c 1.00 μM; for inhibition at 2 µM: MCF-7, c 2.00 μM; for inhibition at 4 µM: MCF-7, c 4.00 μM; for inhibition at 8 µM: MCF-7, c 8.00 μM; for inhibition at 16 µM: MCF-7, c 16.00 μM; for inhibition at 32 µM: MCF-7, c 32.00 μM; for inhibition at 64 µM: MCF-7, c 64.00 μM; for inhibition at 128 µM: MCF-7, c 128.00 μM; for IC50: MCF7, MTT, 72 h, mean ± SD (n = 3)
Method: as §1, with “Adriamycin was used as a positive control.” left out

HepG2 (hepatoma cancer) = test: MTT cytotoxicity assay, HepG2 cells; type: cell-based, human; details: Homo sapiens; for inhibition at 1 µM / inhibition at 2 µM / inhibition at 4 µM / inhibition at 8 µM / inhibition at 16 µM / inhibition at 32 µM / inhibition at 64 µM / inhibition at 128 µM: HepG2, 72 h, three replicates, read-out: cell inhibition; for inhibition at 1 µM: HepG2, c 1.00 μM; for inhibition at 2 µM: HepG2, c 2.00 μM; for inhibition at 4 µM: HepG2, c 4.00 μM; for inhibition at 8 µM: HepG2, c 8.00 μM; for inhibition at 16 µM: HepG2, c 16.00 μM; for inhibition at 32 µM: HepG2, c 32.00 μM; for inhibition at 64 µM: HepG2, c 64.00 μM; for inhibition at 128 µM: HepG2, c 128.00 μM; for IC50: HepG2, MTT, 72 h, mean ± SD (n = 3)
Method: as §1

normal cell line LX-2 = test: MTT cytotoxicity assay, normal cell line LX-2; type: cell-based; details: for inhibition at 1 µM / inhibition at 2 µM / inhibition at 4 µM / inhibition at 8 µM / inhibition at 16 µM / inhibition at 32 µM / inhibition at 64 µM / inhibition at 128 µM / IC50: 72 h; for inhibition at 1 µM: LX-2, c 1.00 μM; for inhibition at 1 µM / inhibition at 2 µM / inhibition at 4 µM / inhibition at 8 µM / inhibition at 16 µM / inhibition at 32 µM / inhibition at 64 µM / inhibition at 128 µM: three replicates; for inhibition at 2 µM: LX-2, c 2.00 μM; for inhibition at 4 µM: LX-2, c 4.00 μM; for inhibition at 8 µM: LX-2, c 8.00 μM; for inhibition at 16 µM: LX-2, c 16.00 μM; for inhibition at 32 µM: LX-2, c 32.00 μM; for inhibition at 64 µM: LX-2, c 64.00 μM; for inhibition at 128 µM: LX-2, c 128.00 μM; for IC50: MTT, mean ± SD (n = 3); for activity on the normal cell line LX-2: in words
Method: as §1, with “Adriamycin was used as a positive control.” left out

[1] = tested on: three human cancer cell lines (SF-268, MCF-7, and HepG2); test: MTT cytotoxicity, summary over three human cancer cell lines; type: cell-based; details: for IC50: Homo sapiens, read-out: IC50 values, range over three cell lines
Method: as §1

## CN[C@H](CC(C)C)C(=O)N[C@H]1C(=O)N[C@@H](CC(N)=O)C(=O)N[C@H]2C(=O)N[C@H]3C(=O)N[C@H](C(=O)N[C@H](C(=O)O)c4cc(O)cc(O)c4-c4cc3ccc4O)[C@H](O)c3ccc(c(Cl)c3)Oc3cc2cc(c3O[C@@H]2O[C@H](CO)[C@@H](O)[C@H](O)[C@H]2O[C@H]2C[C@](C)(N)[C@H](O)[C@H](C)O2)Oc2ccc(cc2Cl)[C@H]1O [Vancomycin]
MRSA (JCSC 3063)
  MIC: 1.25 µg/mL (≈ 0.863 µM)

## CC1(O)CC2OC23C(C)(C)C(Cl)CCC3(C)C1C(=O)O (stereo not shown) [compound 6, altiloxin B]
SF-268 (CNS cancer)
  inhibition at 1 µM: 3.44%
  inhibition at 2 µM: 5.06%
  inhibition at 4 µM: 7.23%
  inhibition at 8 µM: 9.25%
  inhibition at 16 µM: 12.9%
  inhibition at 32 µM: 22.6%
  inhibition at 64 µM: 49.5%
  inhibition at 128 µM: 60.3%
  IC50: > 40 µM
MCF-7 (breast cancer)
  inhibition at 1 µM: 1.37%
  inhibition at 2 µM: 4.01%
  inhibition at 4 µM: 8.56%
  inhibition at 8 µM: 13%
  inhibition at 16 µM: 18.9%
  inhibition at 32 µM: 24.3%
  inhibition at 64 µM: 59.3%
  inhibition at 128 µM: 66.4%
  IC50: > 40 µM
HepG2 (hepatoma cancer)
  inhibition at 1 µM: 1.37%
  inhibition at 2 µM: 5.78%
  inhibition at 4 µM: 10.6%
  inhibition at 8 µM: 14.6%
  inhibition at 16 µM: 19.5%
  inhibition at 32 µM: 26.6%
  inhibition at 64 µM: 63.3%
  inhibition at 128 µM: 79.7%
  IC50: > 40 µM
Normal cell line LX-2
  inhibition at 1 µM: 8.12%
  inhibition at 2 µM: 11.8%
  inhibition at 4 µM: 15.9%
  inhibition at 8 µM: 26.5%
  inhibition at 16 µM: 31.3%
  inhibition at 32 µM: 40.5%
  inhibition at 64 µM: 65%
  inhibition at 128 µM: 73.5%
  IC50: > 40 µM

## CC(C)[C@@H](C)/C=C/[C@@H](C)[C@H]1CCC(=O)[C@]23CC(=O)C4=CC(=O)CC[C@]4(C)[C@H]2CC[C@]13C [compound 7, dankasterone A]
SF-268 (CNS cancer)
  inhibition at 1 µM: 16.3%
  inhibition at 2 µM: 31.1%
  inhibition at 4 µM: 46.5%
  inhibition at 8 µM: 58.4%
  inhibition at 16 µM: 69.7%
  inhibition at 32 µM: 90.9%
  inhibition at 64 µM: 96.1%
  inhibition at 128 µM: 99.2%
  IC50: 6.7 ± 0.7 µM
MCF-7 (breast cancer)
  inhibition at 1 µM: 35.5%
  inhibition at 2 µM: 47.2%
  inhibition at 4 µM: 64.9%
  inhibition at 8 µM: 72.1%
  inhibition at 16 µM: 81%
  inhibition at 32 µM: 98.2%
  inhibition at 64 µM: 97.5%
  inhibition at 128 µM: 98.3%
  IC50: 3.6 ± 1.1 µM
HepG2 (hepatoma cancer)
  inhibition at 1 µM: 31.1%
  inhibition at 2 µM: 39.6%
  inhibition at 4 µM: 49%
  inhibition at 8 µM: 76.9%
  inhibition at 16 µM: 83.3%
  inhibition at 32 µM: 98%
  inhibition at 64 µM: 99%
  inhibition at 128 µM: 98.5%
  IC50: 4.9 ± 0.9 µM
Normal cell line LX-2
  inhibition at 1 µM: 14.7%
  inhibition at 2 µM: 18.4%
  inhibition at 4 µM: 26.4%
  inhibition at 8 µM: 31.4%
  inhibition at 16 µM: 33.1%
  inhibition at 32 µM: 43.2%
  inhibition at 64 µM: 81.3%
  inhibition at 128 µM: 92.6%
  IC50: > 40 µM
  activity on the normal cell line LX-2: not active
[1]
  cell inhibition against three human cancer cell lines, in words: good cell inhibition
  IC50: 3.6 to 15.8 µM

## CC(C)[C@@H](C)C=C[C@@H](C)[C@H]1CC[C@@]2(O)C3=CC(=O)C4=CC(=O)CC[C@]4(C)[C@H]3CC[C@]12C [compound 8, 14α-hydroxyergosta-4,7,22-triene-3,6-dione]
SF-268 (CNS cancer)
  inhibition at 1 µM: 21.4%
  inhibition at 2 µM: 30.2%
  inhibition at 4 µM: 44.3%
  inhibition at 8 µM: 46.8%
  inhibition at 16 µM: 81.4%
  inhibition at 32 µM: 85.3%
  inhibition at 64 µM: 92.4%
  inhibition at 128 µM: 97.3%
  IC50: 8.3 ± 0.5 µM
MCF-7 (breast cancer)
  inhibition at 1 µM: 21.5%
  inhibition at 2 µM: 26.3%
  inhibition at 4 µM: 35.6%
  inhibition at 8 µM: 47.3%
  inhibition at 16 µM: 72.4%
  inhibition at 32 µM: 89.1%
  inhibition at 64 µM: 97.3%
  inhibition at 128 µM: 96.2%
  IC50: 11.4 ± 0.3 µM
HepG2 (hepatoma cancer)
  inhibition at 1 µM: 20.3%
  inhibition at 2 µM: 27.1%
  inhibition at 4 µM: 34.1%
  inhibition at 8 µM: 46.7%
  inhibition at 16 µM: 58.6%
  inhibition at 32 µM: 78.4%
  inhibition at 64 µM: 89%
  inhibition at 128 µM: 94.3%
  IC50: 15.8 ± 1.3 µM
Normal cell line LX-2
  inhibition at 1 µM: 13.6%
  inhibition at 2 µM: 19.2%
  inhibition at 4 µM: 28%
  inhibition at 8 µM: 35.9%
  inhibition at 16 µM: 41.6%
  inhibition at 32 µM: 48.5%
  inhibition at 64 µM: 73.4%
  inhibition at 128 µM: 90.3%
  IC50: > 40 µM
  activity on the normal cell line LX-2: not active
[1]
  cell inhibition against three human cancer cell lines, in words: good cell inhibition
  IC50: 3.6 to 15.8 µM

## CC(C)[C@@H](C)/C=C/[C@@H](C)C1CCC2C3=CC(=O)OC4=CC(=O)CC[C@]4(C)C3CC[C@@]21C (stereo partly shown) [compound 9, fortisterol]
SF-268 (CNS cancer)
  inhibition at 1 µM: 8.97%
  inhibition at 2 µM: 14.6%
  inhibition at 4 µM: 19.2%
  inhibition at 8 µM: 24.9%
  inhibition at 16 µM: 30.3%
  inhibition at 32 µM: 45.1%
  inhibition at 64 µM: 80.5%
  inhibition at 128 µM: 82.4%
  IC50: > 40 µM
MCF-7 (breast cancer)
  inhibition at 1 µM: 6.87%
  inhibition at 2 µM: 14.1%
  inhibition at 4 µM: 17.4%
  inhibition at 8 µM: 21.5%
  inhibition at 16 µM: 31.4%
  inhibition at 32 µM: 43.2%
  inhibition at 64 µM: 76.1%
  inhibition at 128 µM: 86.4%
  IC50: > 40 µM
HepG2 (hepatoma cancer)
  inhibition at 1 µM: 5.37%
  inhibition at 2 µM: 11.1%
  inhibition at 4 µM: 15.3%
  inhibition at 8 µM: 20.5%
  inhibition at 16 µM: 31.6%
  inhibition at 32 µM: 48.2%
  inhibition at 64 µM: 75.7%
  inhibition at 128 µM: 89.3%
  IC50: > 40 µM
Normal cell line LX-2
  inhibition at 1 µM: 9.02%
  inhibition at 2 µM: 13.6%
  inhibition at 4 µM: 18.5%
  inhibition at 8 µM: 25.5%
  inhibition at 16 µM: 31.9%
  inhibition at 32 µM: 44.7%
  inhibition at 64 µM: 79.3%
  inhibition at 128 µM: 82.5%
  IC50: > 40 µM
